Literature values, collected in patent publication US10314832B2, “β- and γ-diketones and γ-hydroxyketones as Wnt/β-catenin signaling pathway activators” (Samumed, LLC, priority 2010, dated 2019).

B1: Wnt3a: Wnt ligand protein; soluble peptide agonist of LRP5 and Fzd co-receptors (protein, UniProt P56704 19-352, looked up)
Protein Wnt-3a: SYPIWWSLAVGPQYSSLGSQPILCASIPGLVPKQLRFCRNYVEIMPSVAEGIKIGIQECQHQFRGRRWNCTTVHDSLAIFGPVLDKATRESAFVHAIASAGVAFAVTRSCAEGTAAICGCSSRHQGSPGKGWKWGGCSEDIEFGGMVSREFADARENRPDARSAMNRHNNEAGRQAIASHMHLKCKCHGLSGSCEVKTCWWSQPDFRAIGDFLKDKYDSASEMVVEKHRESRGWVETLRPRYTYFKVPTERDLVYYEASPNFCEPNPETGSFGTRDRTCNVSSHGIDGCDLLCCGRGHNARAERRREKCRCVFHWCCYVSCQECTRVYDVHTCK

Columns and labels:
[1] = topical solution, patients with age-related hair loss; cited from earlier work
[2] = system: dedifferentiated Müller glia; conditions: photoreceptor-damaged retina; cited from earlier work

Molecule | patients with moderate regrowth of hair [1] | increase in proliferation of dedifferentiated Müller glia [2]
Nc1cc(N2CCCCC2)nc(N)[n+]1[O-] [minoxidil] | less than 40% | 
B1 |  | > 20 fold
